Measured values from patent US20260132158A1, “PHENYL OXY AMIDE KINASE INHIBITORS” (THE TRANSLATIONAL GENOMICS RESEARCH INSTITUTE, priority 2022, published 2026).

Target: T1, RON Kinase (Homo sapiens, UniProt Q04912)
T1 construct: purchased Promega V8071
Experiment: RON Kinase ADP Glo Assay
Format: biochemical
Details: ratio cMET IC50 / RON IC50
Protocol: RON Kinase ADP Glo Assay • Assay Buffer: 40 mM Tris-HCl, pH7.5, 20 mM MgCl2, 0.1 mg/mL BSA • RON Kinase+ADP-Glo™ Assay (Promega #: V8071) • Substrate: […] Axltide • Enzyme: 100 ng/μL RON Kinase • ATP: 10 mM • ADP-Glo™ Reagent • Kinase Detection Reagent • 384-well white assay plates Kinase assay was done by following instructions from the kit. Briefly, a ten-point serial dilution of compound was prepared at 5× in assay buffer with the final assay concentrations starting at 300 nM, 100 nM, 30 nM, 10 nM . . . 0 nM. Enzyme, substrate, and ATP were used at 25 ng, 2000 ng, and 25 µM, respectively. The assay plate was set up by mixing the components in a total reaction volume of 10 μL per well. The plate was centrifuged gently for 10 seconds and incubated at room temperature (RT) for 60 minutes in the dark. The ADP-Glo Reagent and kinase detection reagent were added and incubated as recommended. The reaction was quantified by measuring luminescence on the Perkin Elmer Envision plate reader.

T1 sequence (Q04912 25-1400): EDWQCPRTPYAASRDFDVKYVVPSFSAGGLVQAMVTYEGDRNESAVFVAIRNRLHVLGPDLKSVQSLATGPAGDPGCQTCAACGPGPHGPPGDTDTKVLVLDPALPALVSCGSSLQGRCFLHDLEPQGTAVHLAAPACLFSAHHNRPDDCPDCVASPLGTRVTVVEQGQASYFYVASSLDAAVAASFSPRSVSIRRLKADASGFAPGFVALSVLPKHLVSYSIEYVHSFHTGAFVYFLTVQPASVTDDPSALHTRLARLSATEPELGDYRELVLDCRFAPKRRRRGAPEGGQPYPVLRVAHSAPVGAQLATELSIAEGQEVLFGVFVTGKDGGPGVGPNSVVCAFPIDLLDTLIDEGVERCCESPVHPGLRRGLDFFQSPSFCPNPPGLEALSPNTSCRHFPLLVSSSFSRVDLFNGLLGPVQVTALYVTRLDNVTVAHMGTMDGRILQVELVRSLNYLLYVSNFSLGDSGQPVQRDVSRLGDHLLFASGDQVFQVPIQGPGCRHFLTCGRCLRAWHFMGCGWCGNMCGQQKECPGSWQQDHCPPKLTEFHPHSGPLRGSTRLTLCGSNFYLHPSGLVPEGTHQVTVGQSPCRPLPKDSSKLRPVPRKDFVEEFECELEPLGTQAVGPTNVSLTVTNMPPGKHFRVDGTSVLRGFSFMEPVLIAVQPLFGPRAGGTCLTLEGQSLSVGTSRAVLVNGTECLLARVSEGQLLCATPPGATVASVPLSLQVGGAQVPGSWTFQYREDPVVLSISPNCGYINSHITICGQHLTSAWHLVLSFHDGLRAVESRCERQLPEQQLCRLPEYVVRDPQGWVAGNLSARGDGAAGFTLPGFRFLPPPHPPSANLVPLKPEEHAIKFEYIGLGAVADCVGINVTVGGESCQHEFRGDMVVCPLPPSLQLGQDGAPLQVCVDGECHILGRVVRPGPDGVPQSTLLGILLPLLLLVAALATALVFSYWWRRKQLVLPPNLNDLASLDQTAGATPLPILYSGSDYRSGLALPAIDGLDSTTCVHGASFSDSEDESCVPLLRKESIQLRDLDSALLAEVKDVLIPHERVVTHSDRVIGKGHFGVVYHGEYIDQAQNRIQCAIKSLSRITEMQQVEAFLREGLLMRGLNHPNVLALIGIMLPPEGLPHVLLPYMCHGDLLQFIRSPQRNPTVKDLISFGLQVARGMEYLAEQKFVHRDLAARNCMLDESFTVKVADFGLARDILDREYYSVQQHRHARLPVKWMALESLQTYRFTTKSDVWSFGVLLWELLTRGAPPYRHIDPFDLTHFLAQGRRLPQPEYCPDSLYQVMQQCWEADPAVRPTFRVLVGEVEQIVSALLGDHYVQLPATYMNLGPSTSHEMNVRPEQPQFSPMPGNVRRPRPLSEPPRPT

Row | SMILES | Fold Selectivity (cMET/RON)
1 | C=CC(=O)NC1CCCC(Nc2nccc(Oc3ccc(NC(=O)c4cnn(-c5ccc(F)cc5)c4C(F)(F)F)cc3F)n2)C1 (single isomer, unassigned) [44 (peak 1), N-(4-((2-((3-acrylamidocyclohexyl)amino)pyrimidin-4-yl)oxy)-3-fluorophenyl)-1-(4-fluorophenyl)-5-(trifluoromethyl)-1H-pyrazole-4-carboxamide] | +++ (represents a value greater than 3 up to 50)
2 | C=CC(=O)NC1CCCC(Nc2nccc(Oc3ccc(NC(=O)c4cnn(-c5ccc(F)cc5)c4C(F)(F)F)cc3F)n2)C1 (single isomer, unassigned) [44 (peak 2), N-(4-((2-((3-acrylamidocyclohexyl)amino)pyrimidin-4-yl)oxy)-3-fluorophenyl)-1-(4-fluorophenyl)-5-(trifluoromethyl)-1H-pyrazole-4-carboxamide] | +++ (represents a value greater than 3 up to 50)
3 | O=C(Nc1ccc(Oc2ccnc(Nc3cccc(N4CCOCC4)c3)n2)c(F)c1)c1cnn(-c2ccc(F)cc2)c1C(F)(F)F [Compound 1, N-(3-fluoro-4-((2-((3-morpholinophenyl)amino)pyrimidin-4-yl)oxy)phenyl)-1-(4-fluorophenyl)-5-(trifluoromethyl)-1H-pyrazole-4-carboxamide] | +++ (represents a value greater than 3 up to 50)
4 | Cn1cnc(-c2cc3ncnc(Oc4ccc(NC(=O)c5cnn(-c6ccc(F)cc6)c5C(F)(F)F)cc4F)c3s2)c1 [Compound 2, N-(3-fluoro-4-((6-(1-methyl-1H-imidazol-4-yl)thieno[3,2-d]pyrimidin-4-yl)oxy)phenyl)-1-(4-fluorophenyl)-5-(trifluoromethyl)-1H-pyrazole-4-carboxamide] | +++ (represents a value greater than 3 up to 50)
5 | O=C(Nc1ccc(Oc2ccnc3cc(Br)nn23)c(F)c1)c1cnn(-c2ccc(F)cc2)c1C(F)(F)F [Compound 4, N-(4-((2-bromopyrazolo[1,5-a]pyrimidin-7-yl)oxy)-3-fluorophenyl)-1-(4-fluorophenyl)-5-(trifluoromethyl)-1H-pyrazole-4-carboxamide] | ++ (represents a value greater than 0.5 up to 3)
6 | Cn1cc(-c2c(Oc3ccc(NC(=O)c4cnn(-c5ccc(F)cc5)c4C(F)(F)F)cc3F)ccnc2N)cn1 [Compound 5, N-(4-((2-amino-3-(1-methyl-1H-pyrazol-4-yl)pyridin-4-yl)oxy)-3-fluorophenyl)-1-(4-fluorophenyl)-5-(trifluoromethyl)-1H-pyrazole-4-carboxamide] | +++ (represents a value greater than 3 up to 50)
7 | Cn1cc(-c2c(Oc3ccc(NC(=O)c4nnn(-c5ccc(F)cc5)c4C(F)(F)F)cc3F)ccnc2N)cn1 [Compound 6, N-(4-((2-amino-3-(1-methyl-1H-pyrazol-4-yl)pyridin-4-yl)oxy)-3-fluorophenyl)-1-(4-fluorophenyl)-5-(trifluoromethyl)-1H-1,2,3-triazole-4-carboxamide] | ++ (represents a value greater than 0.5 up to 3)
8 | Cn1cc(-c2cc3nccc(Oc4ccc(NC(=O)c5cnn(-c6ccc(F)cc6)c5C(F)(F)F)cc4F)n3n2)cn1 [Compound 7, N-(3-fluoro-4-((2-(1-methyl-1H-pyrazol-4-yl)pyrazolo[1,5-a]pyrimidin-7-yl)oxy)phenyl)-1-(4-fluorophenyl)-5-(trifluoromethyl)-1H-pyrazole-4-carboxamide] | +++ (represents a value greater than 3 up to 50)
9 | Cn1cnc(-c2cc3nccc(Oc4ccc(NC(=O)c5cnn(-c6ccc(F)cc6)c5C(F)(F)F)cc4F)n3n2)c1 [Compound 8, N-(3-fluoro-4-((2-(1-methyl-1H-imidazol-4-yl)pyrazolo[1,5-a]pyrimidin-7-yl)oxy)phenyl)-1-(4-fluorophenyl)-5-(trifluoromethyl)-1H-pyrazole-4-carboxamide] | +++ (represents a value greater than 3 up to 50)
10 | Cn1cc(-c2c(Oc3ccc(NC(=O)c4ccnc(-c5ccc(F)cc5)c4C(F)(F)F)cc3F)ccnc2N)cn1 [Compound 12, N-(4-((2-amino-3-(1-methyl-1H-pyrazol-4-yl)pyridin-4-yl)oxy)-3-fluorophenyl)-2-(4-fluorophenyl)-3-(trifluoromethyl)isonicotinamide] | +++ (represents a value greater than 3 up to 50)
11 | CP(C)(=O)c1c(Oc2ccc(NC(=O)c3cnn(-c4ccc(F)cc4)c3C(F)(F)F)cc2F)ccnc1N [Compound 17, N-(4-((2-amino-3-(dimethylphosphoryl)pyridin-4-yl)oxy)-3-fluorophenyl)-1-(4-fluorophenyl)-5-(trifluoromethyl)-1H-pyrazole-4-carboxamide] | +++ (represents a value greater than 3 up to 50)
12 | Cn1cc(-c2c(Oc3ccc(NC(=O)c4cc(-c5ccc(F)cc5)no4)cc3F)ccnc2N)cn1 [Compound 21, N-(4-((2-amino-3-(1-methyl-1H-pyrazol-4-yl)pyridin-4-yl)oxy)-3-fluorophenyl)-3-(4-fluorophenyl)isoxazole-5-carboxamide] | + (represents a value below 0.5)
13 | COc1cc(Nc2nccc(Oc3ccc(NC(=O)c4cnn(-c5ccc(F)cc5)c4C(F)(F)F)cc3F)n2)cc(OC)c1 [Compound 24, N-(4-((2-((3,5-dimethoxyphenyl)amino)pyrimidin-4-yl)oxy)-3-fluorophenyl)-1-(4-fluorophenyl)-5-(trifluoromethyl)-1H-pyrazole-4-carboxamide] | +++ (represents a value greater than 3 up to 50)
14 | CP(C)(=O)c1cccc(Nc2nccc(Oc3ccc(NC(=O)c4cnn(-c5ccc(F)cc5)c4C(F)(F)F)cc3F)n2)c1 [Compound 26, N-(4-((2-((3-(dimethylphosphoryl)phenyl)amino)pyrimidin-4-yl)oxy)-3-fluorophenyl)-1-(4-fluorophenyl)-5-(trifluoromethyl)-1H-pyrazole-4-carboxamide] | +++ (represents a value greater than 3 up to 50)
15 | CC(C)Oc1cccc(Nc2nccc(Oc3ccc(NC(=O)c4cnn(-c5ccc(F)cc5)c4C(F)(F)F)cc3F)n2)c1 [Compound 35, N-(3-fluoro-4-((2-((3-isopropoxyphenyl)amino)pyrimidin-4-yl)oxy)phenyl)-1-(4-fluorophenyl)-5-(trifluoromethyl)-1H-pyrazole-4-carboxamide] | +++ (represents a value greater than 3 up to 50)
16 | C=CC(=O)N1CCCC(c2cccc(Nc3nccc(Oc4ccc(NC(=O)c5cnn(-c6ccc(F)cc6)c5C(F)(F)F)cc4F)n3)c2)C1 (centres unmarked) [Compound 38, N-(4-((2-((3-(1-acryloylpiperidin-3-yl)phenyl)amino)pyrimidin-4-yl)oxy)-3-fluorophenyl)-1-(4-fluorophenyl)-5-(trifluoromethyl)-1H-pyrazole-4-carboxamide] | +++ (represents a value greater than 3 up to 50)
17 | C=CC(=O)N1CCN(CCc2cccc(Nc3nccc(Oc4ccc(NC(=O)c5cnn(-c6ccc(F)cc6)c5C(F)(F)F)cc4F)n3)c2)CC1 [Compound 43, N-[4-(2-{m-[2-(4-acryloyl-1-piperazinyl)ethyl]phenylamino}-4-pyrimidinyloxy)-3-fluorophenyl]-1-(p-fluorophenyl)-5-(trifluoromethyl)-4-pyrazolecarboxamide] | +++ (represents a value greater than 3 up to 50)
